# In US20230312639A1, “GPER PROTEOLYTIC TARGETING CHIMERAS” (University of Iowa Research Foundation, priority 2020, published 2023):
# Columns and labels:
# MCF-7 cells = assay: Cell cycle analysis, propidium iodide, flow cytometry; type: cell-based, human; conditions: MCF-7, 10 µM, 24 hours
# Source text: (§1) FIG. 30. E2-PROTACs promote estrogen receptor-dependent G2/M arrest. E2-PROTAC induced G2/M arrest in human breast cancer cell lines expressing membrane and/or intracellular estrogen receptors. […] Fixed cells were permeabilized and dyed with propidium iodide (PI). Cell cycle data were acquired on a flow cytometer and analyzed using Flow-Jo software. Data are expressed as mean ± SEM (n=3). The percentage of cells in each phase were plotted using Prism 8.0.
# (§2) Cell cycle analysis. […] Following treatment, cells were harvested by trypsinization and washed twice in ice-cold PBS. Cells were then fixed in 70% ethanol at 4° C. for 30 minutes. Fixed cells were pelleted by centrifugation at 230 g for 5 minutes and the cell pellet was incubated in Krishan’s solution (3.8 mM sodium citrate (Fisher Scientific), 0.014 mM propidium iodide (AnaSpec, Fermont, Ca), 1% NP-40 (Sigma) and 2.0 mg/mL RNase A (Fisher Scientific)) for 30 minutes at 37° C. Cells were then centrifuged and washed in PBS prior to analysis using a FacScallibur flow cytometer. The data from flow cytometry were subjected to further analysis by CellQuest software version 3.3. DNA histograms generated indicate the fractions of the cell population in the sub-G1, G0-G1, S, or G2/M phase of the cell cycle.
# (§3) To investigate the biological effect associated with decreased cell viability, cell cycle analysis was performed on the same four cell lines using propidium iodide staining and measured by flow cytometry 24 hours after treatment of cells with 10 µM E2-PROTAC or partial PROTAC (FIG. 30).
# MDA-MB-231 cells = assay: as above; type: cell-based, human; conditions: MDA-MB-231, 10 µM, 24 hours
# Source text: as §1, §2, §3
# SKBR3 cells = assay: as above; type: cell-based, human; conditions: SKBR3, 10 µM, 24 hours
# Source text: as §1, §2, §3
# HCC1806 cells = assay: as above; type: cell-based, human; conditions: HCC1806, 10 µM, 24 hours
# Source text: as §1, §2, §3
# ERs (ERa and ERb) = assay: Fluorescence polarization competitive binding with E2-FITC in cytosolic fractions from MCF-7 cells; parameters: species or system human
# Method: ER binding was measured using cytosolic fractions prepared from MCF-7 cells by fluorescence polarization. MCF-7 (10^6 cells) were detached in EDTA, cell homogenates were prepared using a Dounce homogenizer and subcellular fractions were isolated by differential centrifugation as previously described (Filardo et al, 2002). The protein concentration of each fraction was determined by bichinchoninic acid (BCA) assay (Pierce ™ BCA protein assay kit, Thermo Fisher). For saturation binding assay of the probe, different concentrations of cytosolic fraction were diluted in assay buffer (10 mM Tris-HCl, pH 7.4; 50 mM KCl, 10% glycerol, 0.1 mM dithiothreitol (DTT), 1 ug/mL BGG, 10 nM protease inhibitor cocktail (Roche) to a final volume of 200 uL containing 10 nM Ez-FITC. The mixture was incubated at ambient temperature for 1 hour and interaction of the probe with cytosolic protein was determined by fluorescence polarization (FP). For competitive binding assay, an aliquot of cytosolic fraction and E2-FITC (10 nM final concentration) was mixed and incubated at 4° C. for 1 hour. Then different concentrations of drugs and controls were added to the mixture. The mixture was incubated for an additional hour and then subjected to FP. All samples were measured in triplicate. Negative controls (only cytosolic fraction or only E2-FITC) and positive control (E2-FITC and cytosolic fraction at 100% binding without treatment) were included. Relative binding affinities were expressed as the percentage of FP recorded from treated wells compared to the positive control. FP values in millipolarization units (mP) were measured at ex/em wavelength of 485 nm/530 nm respectively using the Spectra Max plus 384 Microplate Spectrophotometer (Molecular Devices, Sunnyvale, CA) in 96-well, black, flat-bottom microplates (Greiner Bio-One North America, Inc., Monroe, NC). Kd values of the probe were determined by nonlinear regression fitting of the saturation curves, while IC50 values of treatment were determined by nonlinear regression fitting of the competition curves.
# In contrast to GPER, ERa and ERb are intracellular receptors that are concentrated in the cytoplasm and in the nucleus. […] A saturation analysis was performed using 10 nM E2-FITC and increasing concentrations of cytosolic protein (FIG. 25D).
# ERβ = ERβ (Homo sapiens, UniProt Q92731); assay: Immunostaining of endogenous receptors in MCF-7 cells; conditions: MCF-7, 1 hour
# GPER = GPER (Homo sapiens, UniProt Q99527); assay: as above; conditions: MCF-7, 1 hour
# Sequence of GPER (Q99527 whole entry): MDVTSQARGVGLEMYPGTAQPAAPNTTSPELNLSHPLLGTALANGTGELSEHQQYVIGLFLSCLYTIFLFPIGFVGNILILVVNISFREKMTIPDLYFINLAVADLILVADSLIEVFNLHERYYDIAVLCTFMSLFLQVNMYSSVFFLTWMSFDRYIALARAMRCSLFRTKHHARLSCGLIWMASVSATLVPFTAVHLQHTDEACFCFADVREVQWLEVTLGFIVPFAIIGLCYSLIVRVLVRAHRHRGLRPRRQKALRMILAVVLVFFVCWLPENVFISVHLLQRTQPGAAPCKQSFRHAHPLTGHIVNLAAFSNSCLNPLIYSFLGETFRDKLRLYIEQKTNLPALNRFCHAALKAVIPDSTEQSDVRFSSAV
# Sequence of ERβ (Q92731 whole entry): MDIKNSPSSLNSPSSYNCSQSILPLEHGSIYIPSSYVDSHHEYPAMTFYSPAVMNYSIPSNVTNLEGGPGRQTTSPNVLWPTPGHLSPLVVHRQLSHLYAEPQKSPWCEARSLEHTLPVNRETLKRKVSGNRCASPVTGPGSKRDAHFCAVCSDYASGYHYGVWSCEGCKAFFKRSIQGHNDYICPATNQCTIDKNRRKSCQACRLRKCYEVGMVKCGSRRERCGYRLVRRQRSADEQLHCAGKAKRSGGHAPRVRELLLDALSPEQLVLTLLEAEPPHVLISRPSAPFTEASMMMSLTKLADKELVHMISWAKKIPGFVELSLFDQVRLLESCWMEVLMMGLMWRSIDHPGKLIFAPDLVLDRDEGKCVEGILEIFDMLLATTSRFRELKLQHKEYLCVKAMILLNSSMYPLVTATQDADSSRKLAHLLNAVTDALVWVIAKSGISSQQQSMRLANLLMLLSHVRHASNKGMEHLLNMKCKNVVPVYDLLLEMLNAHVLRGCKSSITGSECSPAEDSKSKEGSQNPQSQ
smiles,measurement,setting,value
Cc1ncsc1-c1ccc(CNC(=O)C2CC(O)CN2C(=O)C(NC(=O)COCCOCCOCCOCC(=O)OC2CCC3C4CCc5cc(O)ccc5C4CCC23C)C(C)(C)C)cc1 (stereo not drawn) [UI-EP001],cell cycle distribution,MCF-7 cells,dramatic increase in the G2/M peak
same,cell cycle distribution,MDA-MB-231 cells,This shift was not observed
same,cell cycle distribution,SKBR3 cells,dramatic increase in the G2/M peak
same,cell cycle distribution,HCC1806 cells,dramatic increase in the G2/M peak
same,"RBA%, ERs",ERs (ERa and ERb); IC50 of 17β-E2 divided by IC50 of test compound,32%
same,IC50,"ERs (ERa and ERb); MCF-7 cytosolic fraction, 10 nM E2-FITC, mean ± SD of triplicates",17.2 ± 8.2 nM
same,Kd,"ERs (ERa and ERb); MCF-7 cytosolic fractions, E2-FITC, read-out: binding dissociation constant (Kd), ER",17.2 nM
same,nuclear ERβ expression,ERβ,Clear site-specific reduction
same,intracellular GPER expression,GPER,Clear site-specific reduction
